{"source": "patent US4021574A", "about": "“Antidandruff compositions containing 9-(4-lower alkoxy-2,3,6-trilower-alkylphenyl)-3,7-dimethyl-nona-2,4,6,8-tetraen-1-o ic acid lower alkyl amides” (Hoffmann-La Roche Inc., priority 1974, dated 1977)", "key": {"LD50 s.c. in the mouse": {"assay": "LD50 s.c. in the mouse", "conditions": "in vivo, sc"}, "corneocytes on the scalp": {"system": "corneocytes on the scalp", "assay": "Antidandruff activity: number of corneocytes on the scalp of male volunteers", "assay_type": "in vivo, human (male volunteers)", "description": "Dermatology, Vol. 53, p. 107 (1969). Each volunteer was treated by applying to the scalp 15 ml. of 0.1% by weight solution thereof daily for seven days. The number of corneocytes on the scalp of each subject was determined one day before treatment began and 1 day after termination of treatment."}}, "data": [{"compound": "CCNC(=O)/C=C(C)/C=C/C=C(C)/C=C/c1c(C)cc(OC)c(C)c1C", "note": "[9-(4-methoxy-2,3,6-trimethylphenyl)-3,7-dimethyl-nona-2,4,6,8-tetraen-1-oic acid ethyl amide]", "values": [{"measurement": "LD50", "setting": "LD50 s.c. in the mouse", "value": "> 4000", "unit": "mg/kg"}, {"measurement": "Number of Corneocytes, one day post treatment", "setting": "corneocytes on the scalp; Volunteer No. 1, 15 ml of 0.1% by weight solution on scalp daily for seven days, one day pre-treatment: 2100", "value": 1400}, {"measurement": "Number of Corneocytes, one day post treatment", "setting": "corneocytes on the scalp; Volunteer No. 2, 15 ml of 0.1% by weight solution on scalp daily for seven days, one day pre-treatment: 5100", "value": 1500}, {"measurement": "Number of Corneocytes, one day post treatment", "setting": "corneocytes on the scalp; Volunteer No. 3, 15 ml of 0.1% by weight solution on scalp daily for seven days, one day pre-treatment: 3250", "value": 1600}, {"measurement": "Number of Corneocytes, one day post treatment", "setting": "corneocytes on the scalp; Volunteer No. 4, 15 ml of 0.1% by weight solution on scalp daily for seven days, one day pre-treatment: 1900", "value": 1600}, {"measurement": "decline in number of corneocytes (average)", "setting": "corneocytes on the scalp; four volunteers, one day post treatment vs one day pre-treatment, 15 ml of 0.1% by weight solution daily for seven days", "value": 50, "unit": "%"}, {"measurement": "Number of Corneocytes, one day post treatment, Total", "setting": "corneocytes on the scalp; total of four volunteers, 15 ml of 0.1% by weight solution on scalp daily for seven days, one day pre-treatment total: 12350", "value": 6100}]}]}
